# Test results as given in patent publication US20020004058A1, “Immunomodulating and antiinflammatory agent” (priority 1993, published 2002).
# Assays:
# [1] = tested on: eosinophils exudated to peritoneum; test: Hypereosinophilic model induced by ragweed pollen antigen; format: in vivo, female BALB/c mice
# Method: A ragweed pollen extract (which was diluted to an extent of 1,000 times using a physiological saline solution) was hypodermically injected into female BALB/c mice of six to eight weeks age for sensitization at the dose of 0.1 ml on the initiation day and on the first day and 0.2 ml on the sixth, eighth and fourteenth days. On the twentieth day, 0.2 ml of a 1,000 times diluted ragweed antigen was intraperitoneally injected into the mice to induce the reaction. On the 24th hour after the induction, the peritoneal exudate cells were recovered and subjected to a Giemsa staining and the total cell numbers, number of eosinophils, number of neutrophils and number of mononuclear cells were counted. As a result, the number of the eosinophils peaked 24 hours after the induction. […] The above-mentioned hypereosinophilic models were used for checking the action towards the hypereosinophilicity by a hypodermic injection of the product of the present invention. Thus, histamine-added mouse gamma-globulin, at a dose of 3 mg/mouse/day twice a week for three weeks was administered until the induced day. Further tests were conducted by administering the corresponding amount of each of histamine (dihydrochloride) and mouse gamma-globulin which are the constituting components of the histamine-added mouse gamma-globulin.
# [2] = tested on: eosinophils exudated to peritoneum; test: Hypereosinophilic model induced by platelet activating factor (PAF); format: in vivo, female BALB/c mice
# Method: A PAF (5 micrograms/200 microliters) was intraperitoneally injected into female BALB/c mice of six to eight weeks age to induce the reaction. After 24 hours from the induction, the peritoneal exudate cells were recovered and the number of the eosinophils were counted.
# [3] = tested on: anti-TNP antibody production; test: Production of a TNP-specific antibody (anti-TNP IgM and IgG, ELISA) in mice sensitized with TNP-SRBC; format: in vivo, male BALB/c mice; conditions: hypodermic injection four days from sensitization
# Method: (§1) Trinitrobenzenesulfonic acid (TNBS) was dissolved in a physiological saline solution buffered with phosphoric acid to prepare a solution (40 mg/7.0 ml; pH 7.2) and then 1 ml of sheep red cell pellets was dropped thereinto with stirring. The mixture was allowed to stand at room temperature with stirring for several times under a light-shielding state and washed with a physiological saline solution three times. Then it was centrifuged at 3,000 rpm for five minutes and made into a solution of 5×10^9 cells/ml using a physiological saline solution.
# TNP-SRBC (10^9 cells) was intraperitoneally administered to male BALB/c mice of six to eight weeks age and the anti-TNP antibody in serum was measured by an enzymatic immunoassay (ELISA) using a dinitrophenyl-bovine serum albumin (DNP-BSA).
# (§2) The above-mentioned test system was used for checking the action of: (a) the histamine-added mouse gamma-globulin (150 mg/kg/day) (the product of the present invention), (b) cyclosporin A (100 mg/kg/day), (c) cyclophosphamide (100 mg/kg/day), (d) prednisolone ([…]) and (e) levamizole (5 mg/kg/day) towards the anti-TNP antibody production and to the TNP-specific DTH reaction. The drugs were administered by hypodermic injection four days from the sensitization with TNP-SRBC.
# [4] = tested on: TNP-specific DTH reaction; test: TNP-specific DTH reaction (paw swelling) in mice sensitized with TNP-SRBC; format: in vivo, male BALB/c mice; conditions: for Swelling in Paws After 24 Hrs.: difference right/left paw 24 hours after TNB induction on day 14; for Swelling in Paws After 24 Hrs. / Swelling in Paws After 48 Hrs.: drugs by hypodermic injection four days from sensitization; for Swelling in Paws After 48 Hrs.: difference right/left paw 48 hours after TNB induction on day 14; for action to the delayed type hypersensitivity (DTH), in words: hypodermic injection four days from sensitization
# Method: as §1
# The mice were sensitized with TNP-SRBC as described in paragraph (2) above. On the 14th day, 0.025 ml of TNB (4.7 mg/ml) was injected into the right hind paw to induce a TNP-specific DTH reaction. After 24 hours and 48 hours from the induction, the thickness of both paws was measured using a dial gauge. The difference in the thickness between the right and left paws was expressed as the intensity of the DTH reaction. […] This measuring system for the DTH reaction can be subjected to further tests using the same mice as in the case of the antibody production system of paragraph (2) above.
# as §2
Compound,"Number of Eosinophils Exudated to Peritoneum ([1]; ragweed antigen induced, 24 h after induction, product 3 mg/mouse/day s.c. twice a week for three weeks, components in corresponding amount, cyclosporin A 100 mg/kg/day three days)","suppression of eosinophil exudation into peritoneum, ragweed pollen antigen model, in words ([1]; twice a week for three weeks until the induced day)","Number of Exudated Eosinophils to Peritoneum ([2]; PAF 5 micrograms i.p., 24 hours after induction)","suppressive action upon hypereosinophilicity induced by PAF, in words ([2]; same manner of administration as ragweed model)","action upon anti-TNP IgG antibody production (FIG. 2), in words [3]","action upon anti-TNP IgM antibody production (FIG. 1), in words [3]",Swelling in Paws After 24 Hrs. [4],Swelling in Paws After 48 Hrs. [4],"action to the delayed type hypersensitivity (DTH), in words [4]"
"Cl.Cl.NCCc1c[nH]cn1 [Histamine, histamine (dihydrochloride)]",3.4 ± 0.6 ×10^5 cells,not observed,2.2 ± 0.8 ×10^5 cells,not observed,,,,,
"c1ccc([C@H]2CN3CCSC3=N2)cc1 [Lavamizole, levamizole]",,,,,did not significantly affect,did not significantly affect,40.0 ± 6.5 ×10^−2 mm,20.0 ± 5.0 ×10^−2 mm,no significant effect
"C[C@]12C=CC(=O)C=C1CC[C@@H]1[C@@H]2[C@@H](O)C[C@@]2(C)[C@H]1CC[C@]2(O)C(=O)CO [Prednisolone, prednisolone]",,,,,did not significantly affect,did not significantly affect,30.0 ± 5.6 ×10^−2 mm,8.3 ± 3.3 ×10^−2 mm,weak suppressive action
"O=P1(N(CCCl)CCCl)NCCCO1 (stereo not shown) [Cyclophosphamide, cyclophosphamide]",,,,,significantly suppressed,significantly suppressed,13.3 ± 2.1 ×10^−2 mm,15.8 ± 2.4 ×10^−2 mm,clear suppressive actions
